Where a SMILES comes first, the peptide text is derived from it. [ ]: non-standard residue; d: D form. ξ: configuration not given here. ξAze = O=C(O)C1CCN1
What was measured:
[1] = Mouse pharmacokinetic detection; type: in vivo; details: CD1 mice; for AUC(0-t): oral gavage 10 mg/kg; for bioavailability: oral gavage 10 mg/kg vs intravenous 10 mg/kg
Experimental: The detection was carried out in 6-8-week-old CD1 mice (purchased from: Speifu (Beijing) Biotechnology Co., Ltd.). […] The concentration of the compound in a plasma sample was analyzed by LC-MS/MS. Pharmacokinetic calculation was carried out by using WinNonlin (Phoenix™, Version 8.3) or other similar software. The following pharmacokinetic parameters were calculated based on plasma concentration and time data: Oral administration: AUClast, bioavailability (F). Statistical calculation was carried out on the above parameter data. Table 3 Pharmacokinetic data of some compounds administered orally in mice

CUMS model mice [2] = assay: Forced swimming test in CUMS model mice, intravenous administration; type: in vivo, C57/B6 mice; details: single i.v. dose 100 mg/kg, test 2 hours later (FIG. 3)
Source text: (§1) 6-8-week-old C57/B6 mice (purchased from: Jinan Pengyue Laboratory Animal Breeding Co., Ltd.) were used to establish a 28-day chronic unpredictable mild stress (CUMS) animal model, and an experimental procedure referred to document description^[1,2]. After one week of acclimatization, seven experiments, including food and water deprivation, foot shock, wet bedding, cage tilting, restraint stress, shaker stress, and olfactory stimulation, were randomly applied to the animals within one week to achieve unpredictability, and the stimulation was continued for 4 consecutive weeks. The successful establishment of the model was verified by an open field test (OFT)^[3], and then pharmacodynamic evaluation was carried out. The animals were divided into a blank control group (Control), a model group (Model), a vehicle control group (Vehicle), a fluoxetine control group and a compound group in the experiment. The test compound was intravenously (i.v.) administered once at a dose of 100 mg/kg, a tail suspension test (TST) and a forced swimming test (FST)^[4,5] were carried out 2 hours later to evaluate the depression of the mice, and prolonged immobility time in the TST and the FST indicated behavioral despair of the mice. After summary statistics of data, SPSS data statistics software was used for analysis, and Graph Pad software was used for graph generation based on SPSS analysis results.

CUMS model mice [3] = assay: Tail suspension test in CUMS model mice, intravenous administration; type: in vivo, C57/B6 mice; details: single i.v. dose 100 mg/kg, test 2 hours later (FIG. 4)
Source text: as §1

[4] = Permeability detection in MDR1-MDCK II cell monolayer; type: in vitro ADME; details: dog, pH 7.4, MDR1-MDCK II cells, 2 µM, 2.5 hours; for Papp A→B at 2.5 h, 2 µM: apical to basolateral; for Papp B→A at 2.5 h, 2 µM: basolateral to apical
Experimental: (§2) MDR1-MDCK II cells (imported from the Netherlands Cancer Institute) were seeded in a 96-well cell plate at a density of 3.33×10^5 cells/mL, and cultured in a carbon dioxide incubator for 4-7 days to form a cell monolayer. A Hank's balanced salt solution (HBSS, pH 7.40 ± 0.05) containing 10.0 mM 4-(2-hydroxyethyl)-1-piperazineethanesulfonic acid (HEPES) was used as a transport buffer. A DMSO stock solution of compound was diluted to 2 µM (DMSO < 1.0%) with the transport buffer, and added to the basolateral (B) side and apical (A) side respectively (N=2). The bidirectional (A-B and B-A) incubation concentration of Digoxin, a P-gp substrate, was 10 µM, and the unidirectional (A-B) incubateion concentrations of Nadolol, a low-permeability control, and Metoprolol, a high-permeability control, were 2 µM. The cell plate was incubated in a 5% CO2 cell incubator at 37°C and saturated humidity for 2.5 hours, then final samples from a receiver side and a donor side were collected, added with the transport buffer and a precipitant at an appropriate ratio, and analyzed by LC-MS/MS, and an apparent permeability coefficient, an efflux ratio and a solution recovery were calculated.
(§3) After the transport experiment was completed, an integrity of the MDR1-MDCK II cell layer was detected by a lucifer yellow detection experiment. Residual solution in apical and basolateral wells was removed, and 75 µL of transport buffer containing 100 µM lucifer yellow was added to the apical wells and 250 µL of transport buffer was added to the basolateral wells respectively. The cell plate was incubated in a 5% CO2 cell incubator at 37 °C and saturated humidity for 30 minutes, then 20 µL of sample was taken from the apical side and mixed with 60 µL of transport buffer and 80 µL of sample was taken from the basolateral side. A relative fluorescence intensity was detected by a microplate reader at excitation/emission wavelengths of 425/528 nm, and the permeability of Lucifer Yellow was calculated.
(§4) The apparent permeability coefficient (Papp), efflux ratio (ER) and %solution recovery were respectively calculated by following formulas: Papp = (VR)/(Area × Time) × ([drug]receiver)/([drug]initial,donor) = (VR)/(Area × Time) × (CR)/(C0) [formula] Efflux Ratio = (Papp (B−A))/(Papp (A−B)) [formula] %Solution Recovery = (CR × VR + CD × VD)/(C0 × VD) × 100 [formula]
(§5) VR was the volume of solution in the receiver side (0.075 mL for the apical side and 0.25 mL for the basolateral side respectively), VD was the volume of solution in the donor side (0.075 mL for the apical side and 0.25 mL for the basolateral side respectively), CR was the peak area ratio of compound in the receiver side, CD was the peak area ratio of compound in the donor side, C0 was the initial peak area ratio of compound in the donor side, Area was the surface area (0.143 cm^2) of the cell monolayer, and Time was incubation time of 9000 seconds (150 minutes). Papp(B-A) and Papp(A-B) respectively referred to the apparent permeability coefficient from the basolateral side to the apical side and the apparent permeability coefficient from the apical side to the basolateral side.
(§6) The permeability of Lucifer Yellow(%Lucifer Yellow) was calculated by the following formula: %Lucifer Yellow = (VBasolateral × RFUBasolateral)/(VApical × RFUApical + VBasolateral × RFUBasolateral) × 100 [formula]
(§7) RFUApical and RFUBasolareral respectively referred to relative fluorescence intensities of lucifer yellow in the apical side and the basolateral side. VApical and VBasolateral respectively referred to loading volumes (0.075 mL and 0.25 mL respectively) in the apical side and the basolateral side. Table 2 Permeability data of some compounds

MDR1-MDCK II cells = assay: as above; type: in vitro ADME; details: permeability rank
Experimental: as §2, §3, §4, §5, §6, §7

[5] = Rat pharmacokinetic detection; type: in vivo; details: plasma, male SD rats
Experimental: The detection was carried out in 6-8-week-old male SD rats (purchased from:SPF (Beijing) Biotechnology Co., Ltd.). A test compound was dissolved in a solution containing 10% DMSO, 15% Solutol HS and 75% (aqueous solution of 10% hydroxypropyl-β-cyclodextrin), and administered via intravenous injection (10 mg/kg) or oral gavage (15 mg/kg). A concentration of the compound in a plasma sample was analyzed by LC-MS/MS. Pharmacokinetic calculation was carried out by using WinNonlin (Phoenix™, Version 8.3). The following pharmacokinetic parameters were calculated based on plasma concentration and time data: Oral administration: AUClast, bioavailability (F). Statistical calculation was carried out on the above parameter data. Table 4 Pharmacokinetic data of some compounds administered orally in rats

CUMS model mice [6] = assay: Tail suspension test in CUMS model mice, oral administration; type: in vivo, C57/B6 mice; details: single oral dose 25 mg/kg, test 2 hours later (FIG. 1, FIG. 2)
Source text: as §1, with “fluoxetine control group, ZZL-7 experimental group and” for “fluoxetine control group and”, “compound was orally administered once” for “compound was intravenously (i.v.) administered once”, “dose of 25 mg/kg, a” for “dose of 100 mg/kg, a”, “suspension test (TST)^[4,5] was carried out” for “suspension test (TST) and a forced swimming test (FST)^[4,5] were carried out”, “the TST indicated behavioral” for “the TST and the FST indicated behavioral”

[7] = Plasma stability determination; type: in vitro ADME; details: mouse
Experimental: Mouse plasma (purchased from IPHASE, Batch No. 23B007) was thawed in a 37°C water bath, centrifuged to remove an upper clot, and the pH value was recorded as 7-8. An appropriate volume of stock solution of test compound in acetonitrile (at a concentration of 10 mM) was diluted with acetonitrile to 1 mM, so as to serve as a test drug solution. An appropriate volume of test drug solution was added to a corresponding volume of plasma and mixed uniformly, such that the concentration of the test compound in the incubation system was 5 µM, and the content of the organic solvent acetonitrile was 0.5%. 50 µL of mixed plasma was transferred into a 96-well plate (N=2), incubated at 37°C in a water bath for a designated time, and then added with 300 µL of internal standard-containing methanol solution to terminate the reaction. The reaction mixture was vortexed and centrifuged, and the supernatant was subjected to LC-MS/MS analysis. Propantheline and ZZL-7 were used as positive controls, and processed and tested under the same conditions as the test compound. A curve was plotted with the remaining percentage of the compound against incubation time to obtain a k value, and the half-life of each compound was calculated.

AUC(0-t) ([1]; in vivo) | bioavailability ([1]; in vivo) | SMILES | immobility time in the forced swimming test (CUMS model mice [2]) | immobility time in the tail suspension test (CUMS model mice [3]) | AUC(0-t) ([1]; plasma) | bioavailability ([1]; plasma) | Papp A→B at 2.5 h, 2 µM [4] | Papp B→A at 2.5 h, 2 µM [4] | Rank Papp (MDR1-MDCK II cells) | AUC(0-t) ([5]; oral gavage 15 mg/kg) | bioavailability ([5]; oral gavage 15 mg/kg vs intravenous 10 mg/kg) | immobility time in the tail suspension test (CUMS model mice [6]) | half-life at 5 µM [7]
154 ng·h/mL | 27.3% | COC(=O)[C@@H](NC(=O)c1ccc[nH]1)C(C)C [A-1-7] | rapidly reverse the prolonged immobility time | rapidly reverse the prolonged immobility time |  |  |  |  |  |  |  |  | 
 |  | COC(=O)[C@@H](NC(=O)C1CCN1C(C)=O)C(C)C (some centres unmarked) [A-2-1] (Ac-[ξAze]-Val-OMe) | rapidly reverse the prolonged immobility time | rapidly reverse the prolonged immobility time | 3130 ng·h/mL | 156% |  |  |  |  |  |  | 
 |  | [2H]C([2H])([2H])C(=O)N1CC[C@@H]1C(=O)N[C@H](c1ncco1)C(C)C [B-2-3] |  |  | 10900 ng·h/mL | 159% | 2.42 ×10⁻⁶ cm/s | 3.22 ×10⁻⁶ cm/s | Moderate | 24300 ng·h/mL | 66% | rapidly reverse the prolonged immobility time | 
 |  | CC(=O)N1CC[C@@H]1C(=O)N[C@H](c1ncco1)C(C)C [B-2-41] |  |  | 11600 ng·h/mL | 90% | 4.07 ×10⁻⁶ cm/s | 5.61 ×10⁻⁶ cm/s | Moderate |  |  | rapidly reverse the prolonged immobility time | > 4.82 h

Reference: patent EP4818189A1, “NITROGEN-CONTAINING HETEROCYCLIC COMPOUND, AND PREPARATION METHOD AND USE THEREFOR” (Chengdu Di'ao Pharmaceutical Group Co., Ltd., priority 2023, dated 2025)
